Laboratory results published in patent US8173693B2, “Benzenesulfonamide derivatives and pharmaceutical composition thereof” (Purzer Pharmaceutical Co., Ltd., priority 2010, dated 2012).
Entries after “also recorded” stand apart in the source; their conditions may differ.

Columns and labels:
[1] = tested on: CL1-5 non-small cell lung cancer; test: SRB assay; format: cell-based; conditions: 48 hr
Experimental: (§1) All cell lines were maintained in RPMI 1640 supplied with 10% fetal bovine serum into 96-well microtiter plates and maintained in a humidified chamber at 37° C. containing 5% CO2. After 24 hr, cell lines in partial wells were fixed in situ with 10% trichloroacetic acid (TCA) to represent a measurement at the time of drug addition (T0). Then, cell lines in other wells were incubated with the benzenesulfonamide derivatives of the present invention for an additional 48 hr, and fixed in situ with 10% TCA to represent a measurement at the time of stopping reaction (Tx). After rinsing the plates with PBS and air-drying, 0.4% sulforhodamine B solution (weight per volume in 1% acetic acid) was added to each well and the plates were incubated for 10 min at room temperature. Unbound sulforhodamine B was removed with 1% acetic acid and the plates were air-dried. Cells bound with sulforhodamine B was subsequently solubilized with 10 mM Tris base (Trizma; Sigma). Cell proliferation was determined by measuring the optical density at 515 nm using a Thermomax microplate reader (Molecular Devices, Sunnyvale, Calif.). The half-inhibition concention (GI50) of the benzenesulfonamide derivatives of the present invention was obtained from the detected optical density.

[2] = tested on: lung carcinoma A549 cells; test: In vitro migration assay (scratch); format: cell-based; conditions: 0, 0.5, or 10 μM, 18 hr, microscope images
Experimental: Lung carcinoma A549 cells (BCRC 60074; BCRC) were maintained in RPMI 1640 supplied with 10% fetal bovine serum and maintained in a humidified chamber at 37° C. containing 5% CO2. All the cell lines were developed for two generations every week.
In the in vitro migration assay, a scratch was mechanically made on the monolayer of cells to form a line-shaped scratch with cytological exfoliation. The scratch may lead the edge of the cell monolayer to close.
When the monolayered A549 cells were saturated, a scratch was made using a 200-μL tip directly on the monolayer of the A549 cells. Cells were then treated with GM119 with a concentration of 0, 0.5, or 10 μM. After incubation for 18 hr, all the migrations were tracked with a microscope.

[3] = tested on: HUVECs (human umbilical vein endothelial cells); test: In vitro tube formation assay (capillary formation, VEGF-induced); format: cell-based
Experimental: At day 1, HUVECs (human umbilical vein endothelial cells) cocultured with human fibroblasts were incubated in optimized medium and maintained in a humidified chamber at 37° C. containing 5% CO2. […] The cells were stimulated with VEGF (25 ng/mL) without or with GM119 (0.1, 1 or 10 μM). The media were replaced at days 3, 6, and 8. At day 11, the tube-like structures of the umbilical vein endothelial cells were observed by an anti-human CD31 antibody (Kurabo, Tokyo, Japan), and the area of the tube-like structures was analyzed.

4T1-Luc cells [4] = test: In vitro analysis on cell morphology; format: cell-based, murine; conditions: 48 hr
Experimental: After the 4T1-Luc cells were treated with GM119, a phase-contrast microscope was used to observe the cell morphology of the 4T1-Luc cells. Cover glasses were placed in 6-well plates, and each well was seeded with 50,000 tumor cells. The tumor cells were developed in medium with 10% fetal bovine serum, and then treated with 0, 0.01, 0.1, 1, or 10 μM of GM119 for 48 hr. The cells were stained with Giemsa Stain solution (0.38 g of Giemsa powder, 15% of methanol, and 5% of glycerol). After the cells were washed, dried, and sealed, the images of the cells were photographed with a phase-contrast microscope.

4T1-Luc cells [5] = test: In vivo evaluation, short-time treatment, mice implanted with 4T1-Luc cells
Experimental: GM119 (25 mg/kg) was applied to a mouse implanted with 4T1-Luc cells for a short time, and then Taxol (10 mg/kg) was applied thereto to observe the effect of GM119 on the 4T1-Luc cells.
(§2) A suspension of 4T1-Luc cells in matrigel was injected into the breast adipocyte to obtain mice implanted with luciferase tumor cells. […] When the size of the tumor cells was achieved to 200-500 mm^3, the mice were divided into 2 groups, and the number of the mice in each group is ≧5. Then, 0 or 25 mg/kg of GM119 was abdominal-injected into the mice for 5 days, wherein GM119 was dissolved in cremophor, and the volume of injection to each mouse is 50 μl. Then, 0 or 10 mg/kg of Taxol was abdominal-injected into the mice for every 2 days until death of the mice. The weight and the number of the mice were recorded every day to analyze the change on the weight and the survival time of the mice. After the drugs were applied to the mice, the size of the tumor cells in the mice was evaluated with bioluminescence every two days.

4T1-Luc cells [6] = test: In vivo evaluation, long-time treatment, mice implanted with 4T1-Luc cells
Experimental: GM119 (25 mg/kg) and Taxol (10 mg/kg) were simultaneously applied to a mouse implanted with 4T1-Luc cells for a long time to observe the effect of GM119 on the 4T1-Luc cells.
as §2, with “Then, 0/0, 0/25, 10/[…],” for “Then, 0”, “or 10/0” for “or 25”, “of Taxol/GM119” for “of GM119”, “mice every two days until death of the mice,” for “mice for 5 days,”, “GM119 and Taxol were” for “GM119 was”, “μl.” for “μl. Then, 0 or 10 mg/kg of Taxol was abdominal-injected into the mice for every 2 days until death of the mice.”

tumor cells = test: Preliminary cytotoxicity assays (MTT, SRB), tumor cell panel; format: cell-based; conditions: comparison over Tables 1-4
Experimental: Human Bladder Cancer TSGH cells, Human hepatoblastoma HepG2 cells, Human colorectal adenocarcinoma HT-29 cells, human nasopharyngeal carcinoma KB cells, Human gastric adenocarcinoma AGS cells, Human breast carcinoma MCF-7 cells, lung carcinoma A549 cells, and Human prostate carcinoma PC-3 cells were used in the preliminary cytotoxicity assays of the benzenesulfonamide derivatives of the present invention, and the inhibition activity against the tumor cells was evaluated.
All cell lines were maintained in RPMI 1640 supplied with 10% fetal bovine serum and maintained in a humidified chamber at 37° C. containing 5% CO2. Then, all cell lines were treated with compounds for 72 hr and subsequently incubated with 0.4 mg/mL of MTT at 37° C. for 2 hr. The medium was removed, and DMSO was added to dissolve MTT precipitate. Cell proliferation was determined by measuring the optical density at 540 nm using a Thermomax microplate reader (Molecular Devices, Sunnyvale, Calif.), and the IC50 values of the benzenesulfonamide derivatives of the present invention were calculated.
as §1, with “After rinsing the plates with PBS and air-drying, 0.4% sulforhodamine B solution (weight per volume in 1% acetic acid) was added to each well and the plates were incubated for 10 min at room temperature. Unbound sulforhodamine B was removed with 1% acetic acid and the plates were air-dried. Cells bound with sulforhodamine B was subsequently solubilized with 10 mM Tris base (Trizma; Sigma).” left out

[7] = tested on: Human gastric adenocarcinoma AGS cells; test: SRB assay; format: cell-based; conditions: 48 hr

`COc1ccc(S(=O)(=O)Nc2cccc3c2[nH]c2c(C)ccc(C)c23)cc1` [Compound 6c, N-(5,8-Dimethyl-9H-carbazol-1-yl)-4-methoxybenzenesulfonamide] was tested, and the GI50 [1] was 260 nM, the “inhibition on the migration of the A549 cells” value [2] was “the inhibition on the migration of the A549 cells was greater as the concentration of the GM119 was increased” and the “inhibition activity compared with suramin” value ([3]; 10 μM GM119 vs 10 μM suramin) was “almost equivalent to that of suramin”. The “inhibition of formation of tube-like structures induced by VEGF” value ([3]; VEGF 25 ng/mL, GM119 0.1, 1 or 10 μM, day 11) was “can inhibit the formation of the tube-like structures”, the “growth of the 4T1 cells (microscope images)” value (4T1-Luc cells [4]; 0.01 μM) was “the growth of the 4T1 cells can be inhibited” and the “inhibition of the 4T1 cells (microscope images)” value (4T1-Luc cells [4]; 10 μM) was “the inhibition of the 4T1 cells is apparent”. The “survival of the mice” value (4T1-Luc cells [5]; short time: GM119 25 mg/kg abdominal-injected for 5 days, then Taxol 10 mg/kg every 2 days, FIG. 2) was “the survival of the mice can be greatly increased”, the “growth of the tumor cells (bioluminescence)” value (4T1-Luc cells [5]; short-time treatment, GM119 25 mg/kg, Taxol 10 mg/kg) was “the growth of the tumor cells can be inhibited” and the “survival of the mice” value (4T1-Luc cells [6]; long time: Taxol 10 mg/kg and/or GM119 25 mg/kg abdominal-injected every two days until death, FIG. 3) was “the survival time of the mice is the longest”. For the same molecule, the “growth of the tumor cells (bioluminescence)” value (4T1-Luc cells [6]; long-time treatment) was “the growth of the tumor cells can be inhibited”, the “inhibitory activity against the tumor cells (in words)” value (tumor cells) was “has the best inhibition activity; also recorded: has the highest inhibitory activity” and the IC50 [7] was 1000 nM.
